{"source": "patent US9635854B2", "about": "“Controlling red rice with mesotrione” (FMC Corporation, priority 2014, dated 2017)", "assay_type_in_all_cases": "in vivo", "key": {"[1]": {"system": "red rice (Oryza sativa)", "experiment": "Pre-emergent evaluation on dryland rice, red rice control", "conditions": "for Percent red rice control: PRE, direct-seeded dryland rice", "from_the_text": "Rice (Oryza sativa) was planted in 6″ by 10″ fiber flats filled with sterile top soil. Five rows were made in each flat and the three rice varieties (′Cybonee, ‘Jupiter’, and ‘Taggart’) were planted in the center 3 rows and a row of red rice (Oryza sativa) was planted on either end of the flat. The flats were watered after planting. After application flats were placed in the greenhouse and lightly watered. […] The flats were moved to a greenhouse and watered and fertilized routinely. Studies were conducted using randomized complete block design with four replications. In both studies, visual percent red rice control and rice injury were recorded at 14, 21, and 28 days after treatment (DAT), using a scale of 0 (no control/injury) to 100 (complete plant death)."}, "[2]": {"system": "rice (Taggart variety)", "experiment": "Pre-emergent weed control in direct-seeded flooded rice (Example 2), rice injury", "conditions": "for % Rice Injury Rice Taggert: pre-emergent, flooded, 28 Days After Treatment", "from_the_text": "(§1) Seeds of crops, rice (Taggart and Wells varieties) and weeds, yellow nutsedge (Cyperus esculentus), barnyardgrass (Echinochloa crus-galli), large crabgrass (Digitaria sanguinalis), hemp sesbania (Sesbania herbacea), Benghal dayflower (Commelina benghalensis), red rice (Oryza sativa) and broadleaf signalgrass (Urochloa platyphylla) were planted in two gallon pots containing top soil. Each pot was watered well before the application of mesotrione (Callisto® Herbicide from Syngenta Crop Protection)."}, "[3]": {"system": "rice (Wells variety)", "experiment": "Pre-emergent weed control in direct-seeded flooded rice (Example 2), rice injury", "conditions": "for % Rice Injury Rice Wells: pre-emergent, flooded, 28 Days After Treatment", "from_the_text": "as §1"}}, "data": [{"smiles": "CS(=O)(=O)c1ccc(C(=O)C2C(=O)CCCC2=O)c([N+](=O)[O-])c1", "note": "[Mesotrione, mesotrione]", "values": [{"measurement": "Percent red rice control", "setting": "[1]; 14 DAT, 12.5 g ai/ha", "value": 33, "unit": "D %"}, {"measurement": "Percent red rice control", "setting": "[1]; 14 DAT, 25 g ai/ha", "value": 70, "unit": "B %"}, {"measurement": "Percent red rice control", "setting": "[1]; 14 DAT, 37.5 g ai/ha", "value": 74, "unit": "B %"}, {"measurement": "Percent red rice control", "setting": "[1]; 14 DAT, 50 g ai/ha", "value": 79, "unit": "A %"}, {"measurement": "Percent red rice control", "setting": "[1]; 14 DAT, 62.5 g ai/ha", "value": 80, "unit": "A %"}, {"measurement": "Percent red rice control", "setting": "[1]; 14 DAT, 75 g ai/ha", "value": 80, "unit": "A %"}, {"measurement": "Percent red rice control", "setting": "[1]; 14 DAT, 87.5 g ai/ha", "value": 80, "unit": "A %"}, {"measurement": "Percent red rice control", "setting": "[1]; 14 DAT, 100 g ai/ha", "value": 80, "unit": "A %"}, {"measurement": "Percent red rice control", "setting": "[1]; 21 DAT, 12.5 g ai/ha", "value": 60, "unit": "C %"}, {"measurement": "Percent red rice control", "setting": "[1]; 21 DAT, 25 g ai/ha", "value": 81, "unit": "B %"}, {"measurement": "Percent red rice control", "setting": "[1]; 21 DAT, 37.5 g ai/ha", "value": 84, "unit": "AB %"}, {"measurement": "Percent red rice control", "setting": "[1]; 21 DAT, 50 g ai/ha", "value": 86, "unit": "AB %"}, {"measurement": "Percent red rice control", "setting": "[1]; 21 DAT, 62.5 g ai/ha", "value": 89, "unit": "AB %"}, {"measurement": "Percent red rice control", "setting": "[1]; 21 DAT, 75 g ai/ha", "value": 90, "unit": "A %"}, {"measurement": "Percent red rice control", "setting": "[1]; 21 DAT, 87.5 g ai/ha", "value": 90, "unit": "A %"}, {"measurement": "Percent red rice control", "setting": "[1]; 21 DAT, 100 g ai/ha", "value": 90, "unit": "A %"}, {"measurement": "Percent red rice control", "setting": "[1]; 28 DAT, 12.5 g ai/ha", "value": 62, "unit": "B %"}, {"measurement": "Percent red rice control", "setting": "[1]; 28 DAT, 25 g ai/ha", "value": 89, "unit": "A %"}, {"measurement": "Percent red rice control", "setting": "[1]; 28 DAT, 37.5 g ai/ha", "value": 88, "unit": "A %"}, {"measurement": "Percent red rice control", "setting": "[1]; 28 DAT, 50 g ai/ha", "value": 91, "unit": "A %"}, {"measurement": "Percent red rice control", "setting": "[1]; 28 DAT, 62.5 g ai/ha", "value": 92, "unit": "A %"}, {"measurement": "Percent red rice control", "setting": "[1]; 28 DAT, 75 g ai/ha", "value": 92, "unit": "A %"}, {"measurement": "Percent red rice control", "setting": "[1]; 28 DAT, 87.5 g ai/ha", "value": 95, "unit": "A %"}, {"measurement": "Percent red rice control", "setting": "[1]; 28 DAT, 100 g ai/ha", "value": 93, "unit": "A %"}, {"measurement": "red rice control (words, FIG. 3)", "setting": "[1]; pre-emergent treatment at 25 g ai/ha, direct seeded dryland rice test", "value": "controlled"}, {"measurement": "% Rice Injury Rice Taggert", "setting": "[2]; 6 g ai/ha", "value": 0, "unit": "%"}, {"measurement": "% Rice Injury Rice Taggert", "setting": "[2]; 12 g ai/ha", "value": 2, "unit": "%"}, {"measurement": "% Rice Injury Rice Taggert", "setting": "[2]; 25 g ai/ha", "value": 4, "unit": "%"}, {"measurement": "% Rice Injury Rice Taggert", "setting": "[2]; 50 g ai/ha", "value": 8, "unit": "%"}, {"measurement": "% Rice Injury Rice Taggert", "setting": "[2]; 100 g ai/ha", "value": 10, "unit": "%"}, {"measurement": "% Rice Injury Rice Taggert", "setting": "[2]; 200 g ai/ha", "value": 53, "unit": "%"}, {"measurement": "safety on white rice, Taggart", "setting": "[2]; summary of Table 7 data", "value": "safe"}, {"measurement": "% Rice Injury Rice Wells", "setting": "[3]; 6 g ai/ha", "value": 0, "unit": "%"}, {"measurement": "% Rice Injury Rice Wells", "setting": "[3]; 12 g ai/ha", "value": 2, "unit": "%"}, {"measurement": "% Rice Injury Rice Wells", "setting": "[3]; 25 g ai/ha", "value": 4, "unit": "%"}, {"measurement": "% Rice Injury Rice Wells", "setting": "[3]; 50 g ai/ha", "value": 5, "unit": "%"}, {"measurement": "% Rice Injury Rice Wells", "setting": "[3]; 100 g ai/ha", "value": 12, "unit": "%"}, {"measurement": "% Rice Injury Rice Wells", "setting": "[3]; 200 g ai/ha", "value": 47, "unit": "%"}, {"measurement": "safety on white rice, Wells", "setting": "[3]; summary of Table 7 data", "value": "safe"}]}]}
